Results on 17 molecules are retold here after PubChem BioAssay (NCI).

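Results reflect a 48-hour exposure of cells in 96-well plates to compound at five concentrations. Definition used: TGI = concentration required for complete inhibition of growth.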

What all share (assay): DTP human tumour cell line panel, 48 h
For experiment [1], the system named is DU-145 prostate.
For experiment [2], the system named is UACC-62 melanoma.
Experiment [3] has as its system RPMI-8226 leukemia.
Experiment [4] relates to LOX IMVI melanoma.
The subject of experiment [5] is MDA-N.
For experiment [6], the system named is UACC-257 melanoma.
In experiment [7] the test system is OVCAR-5 ovarian.
The subject of experiment [8] is IGROV1 ovarian.
The subject of experiment [9] is SNB-19 CNS.
The test system of experiment [10] is EKVX NSCLC.
Experiment [11] has as its system HOP-92 NSCLC.
For experiment [12], the system named is U251 CNS.
Experiment [13] relates to OVCAR-3 ovarian.
For experiment [14], the system named is NCI-H226 lung.
Experiment [15] relates to SK-MEL-5 melanoma.
The subject of experiment [16] is A498 renal.
The test system of experiment [17] is SF-268 CNS.
For experiment [18], the system named is SNB-75 CNS.
Experiment [19] has as its system MDA-MB-435.

Consider `O=C(OCc1ccccc1)N1CCCc2c(n(S(=O)(=O)c3ccccc3)c3ccccc23)C1`, for which the concentration for total growth inhibition (TGI) in [1], in experiment [2], in experiment [3], in [4], in [5] and in [6] was greater than 100 µM throughout. Also, the concentration for total growth inhibition (TGI) in experiment [7], in experiment [8], in experiment [9], in experiment [10], in experiment [11] and in [12] was greater than 100 µM in each case. Moreover, the TGI in experiment [13], in experiment [14], in experiment [15], in experiment [16] and in experiment [17] was greater than 100 µM each time.
As for `O=Nc1c(NO)ccc2nn(-c3ccccc3)nc12`, the TGI in experiment [1] is greater than 100 µM; in experiment [2], 9.21 µM; in experiment [3], greater than 100 µM; in experiment [4], greater than 100 µM; in [5] it was greater than 100 µM; in experiment [6], 11.7 µM. Further, the TGI in experiment [7] is 37.6 µM; in experiment [8], 49.4 µM; in experiment [9] it was greater than 100 µM; in experiment [10] it was greater than 100 µM; in [11], greater than 100 µM; in [12], greater than 100 µM. For the same molecule, the TGI in [13] is greater than 100 µM; in experiment [18], greater than 100 µM; in experiment [14], 6.64 µM; in [15], 10.8 µM; in [19], 38.3 µM; in experiment [17], greater than 100 µM.
As to `CC1(O)Oc2ccc3ccccc3c2C=C1C(N)=O` (stereo not given), the total growth inhibition concentration (TGI) in experiment [1], in experiment [2], in experiment [3], in [4], in [6] and in [8] was greater than 100 µM throughout. Besides, the total growth inhibition concentration (TGI) in experiment [9], in experiment [10], in experiment [11], in experiment [12], in experiment [18] and in [15] was greater than 100 µM each time. For the same molecule, the TGI in experiment [19], in experiment [16] and in [17] was greater than 100 µM throughout.
Take `NC(=O)OCc1c(-c2ccccc2)nn(-c2ccccc2)c1COC(N)=O`: the TGI in experiment [1], in experiment [2], in experiment [3], in experiment [5], in [6] and in [7] was greater than 100 µM each time. The TGI in experiment [9], in experiment [11], in experiment [12], in experiment [13], in experiment [18] and in [14] was greater than 100 µM throughout. Further, the TGI in experiment [15], in [19] and in experiment [17] was greater than 100 µM in each case.
Take `CCOP(=O)(OCC)C(Nc1ccc(C(=O)O)cc1)c1ccc(C(Nc2ccc(C(=O)O)cc2)P(=O)(OCC)OCC)cc1` (stereo not given): the total growth inhibition concentration (TGI) in experiment [1], in experiment [2], in experiment [3], in experiment [4], in [6] and in [7] was greater than 100 µM in each case. The concentration for total growth inhibition (TGI) in experiment [8], in [9], in experiment [10], in experiment [11], in experiment [12] and in experiment [13] was greater than 100 µM each time. In addition, the TGI in experiment [18], in [14], in experiment [15], in experiment [19], in [16] and in experiment [17] was greater than 100 µM in each case.
In the case of `COc1ccc(-n2sc3ncc([N+](=O)[O-])cc3c2=O)cc1`, the total growth inhibition concentration (TGI) in experiment [1], in experiment [2], in experiment [3], in [4], in experiment [5] and in [6] was greater than 100 µM in each case. Further, the TGI in [7], in [8], in experiment [9], in experiment [10], in [12] and in experiment [13] was greater than 100 µM throughout. The TGI in [18], in experiment [14], in [15], in experiment [19] and in [17] was greater than 100 µM each time.
As to `CCc1ccccc1NC(=O)C(=O)CC(=O)c1sc(Nc2ccccc2Cl)nc1C`, the TGI was greater than 100 µM in experiment [1]; greater than 100 µM in [2]; 65.6 µM in experiment [3]; 44 µM in [4]; 94.4 µM in experiment [5]; greater than 100 µM in [6]. Further, the TGI in experiment [7] is greater than 100 µM; in experiment [8], greater than 100 µM; in experiment [9] it was greater than 100 µM; in experiment [10] it was greater than 100 µM; in experiment [12], greater than 100 µM; in experiment [13], 61 µM. Besides, the concentration for total growth inhibition (TGI) is greater than 100 µM in experiment [14], 52.4 µM in experiment [15], 66.4 µM in experiment [19] and greater than 100 µM in experiment [17].
On to `COc1ccc(C2=NN(C(=O)c3cccnc3)C(O)(c3cc(F)c(Cl)cc3Cl)C2)cc1OC` (stereo not given), for which the total growth inhibition concentration (TGI) was greater than 100 µM in [1]; 73 µM in experiment [3]; 27.2 µM in experiment [4]; 90 µM in [5]; 34.2 µM in experiment [6]; greater than 100 µM in [7]. Further, the TGI is 30.5 µM in experiment [8]; greater than 100 µM in experiment [9]; 73.6 µM in [10]; 50.8 µM in experiment [11]; 29.1 µM in [12]; 27.6 µM in experiment [13]. Moreover, the TGI is 62.9 µM in [18]; 30 µM in experiment [14]; 25 µM in experiment [15]; 87.4 µM in [19]; 39.8 µM in experiment [17].
Take `CC(=O)CCC[C@H](C)[C@@H](O)[C@@H]1O[C@H]([C@@]2(C)CCC(=O)O2)C[C@H]1C(=O)O`: the TGI in experiment [1], in experiment [2], in experiment [3], in experiment [4], in experiment [5] and in [6] was greater than 100 µM each time. Also, the total growth inhibition concentration (TGI) in [7], in [8], in experiment [9], in experiment [10], in experiment [12] and in experiment [13] was greater than 100 µM each time. Further, the total growth inhibition concentration (TGI) in experiment [18], in experiment [14], in experiment [15], in experiment [19] and in [17] was greater than 100 µM throughout.
In the case of `Cc1ccc(S(=O)(=O)Nn2c(O)c(C#N)c(-c3ccc(N(C)C)cc3)c(C#N)c2=O)cc1`, the concentration for total growth inhibition (TGI) in experiment [2] was greater than 50 µM; in [3], 43.4 µM; in experiment [4] it was greater than 50 µM; in experiment [5] it was greater than 50 µM; in experiment [6], greater than 50 µM; in experiment [7] it was greater than 50 µM. For the same molecule, the TGI in [8], in experiment [9], in experiment [10], in [11], in experiment [12] and in experiment [18] was greater than 50 µM each time. For the same molecule, the TGI in experiment [14], in experiment [15], in experiment [19], in experiment [16] and in experiment [17] was greater than 50 µM throughout.
On to `O=c1c2cc(S(=O)(=O)Nc3c(Cl)cccc3Cl)ccc2ncn1NS(=O)(=O)c1ccc2ccccc2c1`, for which the TGI in experiment [1], in [2], in experiment [3], in [4], in experiment [5] and in experiment [6] was greater than 62.5 µM throughout. The TGI in experiment [7], in experiment [8], in experiment [9], in experiment [10], in experiment [11] and in [12] was greater than 62.5 µM each time. Moreover, the TGI was greater than 62.5 µM in [13]; greater than 62.5 µM in experiment [18]; 35.1 µM in experiment [14]; greater than 62.5 µM in [19]; greater than 62.5 µM in experiment [17].
Take `CC1=C2CN(C(=O)OCC(C)C)CCC2C2=C(C(=O)c3ccccc3C2=O)C1C` (stereo not given): the TGI in experiment [1], in experiment [2], in experiment [3], in experiment [4], in experiment [5] and in experiment [6] was greater than 10 µM each time. Moreover, the TGI in experiment [8], in [10], in experiment [11], in [18], in experiment [15] and in experiment [19] was greater than 10 µM in each case. For the same molecule, the concentration for total growth inhibition (TGI) in experiment [17] is greater than 10 µM.
For the molecule `COc1ccc(C(SCC(N)C(=O)O)(c2ccc(OC)cc2)c2ccc(OC)cc2)cc1` (stereo not given), the TGI was 15.7 µM in [2]; greater than 31.6 µM in experiment [3]; 17.2 µM in experiment [4]; 12.7 µM in [5]; 17.3 µM in experiment [6]; 20.7 µM in [7]. The concentration for total growth inhibition (TGI) stood at 20.2 µM in [8]; 22.6 µM in experiment [9]; 21.9 µM in experiment [10]; 31.6 µM in experiment [11]; 29.8 µM in [12]; 17.1 µM in [13]. Besides, the total growth inhibition concentration (TGI) worked out at 19.4 µM in experiment [18]; 18.3 µM in [14]; 10.8 µM in experiment [19]; 22.7 µM in experiment [16]; 19.9 µM in experiment [17].
With `O=C(/C=C/c1ccc2c(c1)OCO2)CC(=O)/C=C/c1ccc2c(c1)OCO2`, the total growth inhibition concentration (TGI) was greater than 100 µM in [2]; greater than 100 µM in experiment [3]; greater than 100 µM in [4]; greater than 100 µM in experiment [5]; greater than 100 µM in [7]; 68.2 µM in experiment [8]. The TGI in experiment [9], in experiment [10], in experiment [12], in [13], in experiment [18] and in experiment [14] was greater than 100 µM throughout. The concentration for total growth inhibition (TGI) in experiment [15] and in experiment [19] was greater than 100 µM throughout.
Regarding `Fc1ccc2c3c([nH]c2c1)CCNC3`, the total growth inhibition concentration (TGI) in [1], in experiment [2], in [3], in [4], in [6] and in experiment [7] was greater than 100 µM in each case. Also, the total growth inhibition concentration (TGI) in experiment [8] is greater than 100 µM; in experiment [9], greater than 100 µM; in [10] it was greater than 100 µM; in experiment [11], 85.9 µM; in experiment [12], greater than 100 µM; in experiment [18] it was greater than 100 µM. Besides, the TGI in [14] was greater than 100 µM; in experiment [15], greater than 100 µM; in experiment [19] it was greater than 100 µM; in experiment [16] it was 65.9 µM; in experiment [17] it was greater than 100 µM.
As to `COc1cc2c(cc1OC)C(=O)/C(=C/c1ccc([N+](=O)[O-])cc1)CC2`, the TGI in experiment [1], in experiment [2], in experiment [3], in [4], in [5] and in experiment [6] was greater than 10 µM in each case. Besides, the TGI in experiment [7], in [8], in experiment [9], in [10], in experiment [11] and in [12] was greater than 10 µM in each case. In addition, the TGI in experiment [13], in [14], in [15], in experiment [19] and in [17] was greater than 10 µM in each case.
`CN(C)c1nc(=NCc2cccnc2)ss1`: the TGI in experiment [1], in [2], in experiment [3], in experiment [4], in experiment [5] and in experiment [6] was greater than 10 µM throughout. In addition, the TGI in experiment [8], in experiment [10], in [11], in [18], in experiment [15] and in experiment [19] was greater than 10 µM throughout. This molecule also gave a TGI in experiment [17] greater than 10 µM.

In general, TGI refers to the concentration giving total growth inhibition. Higher therefore signals less potent growth arrest.
